According to patent US20220168431A1, “METHODS OF TREATING CANCER USING TRIMETAZIDINE-BASED COMPOUNDS” (IMBRIA PHARMACEUTICALS, INC., priority 2019, published 2022):

Tests used:
Cyclooxygenase COX-1 = Cyclooxygenase COX-1 (Homo sapiens, UniProt P23219); assay type: biochemical; details: 10 μM CV-8814
Cyclooxygenase COX-2 = Cyclooxygenase COX-2 (Homo sapiens, UniProt P35354); assay type: biochemical; details: 10 μM CV-8814
Monoamine Oxidase MAO-A = Monoamine Oxidase MAO-A (Homo sapiens, UniProt P21397); assay type: biochemical; details: 10 μM CV-8814
Monoamine Oxidase MAO-B = Monoamine Oxidase MAO-B (Homo sapiens, UniProt P27338); assay type: biochemical; details: 10 μM CV-8814
[1] = target: Protein Tyrosine Kinase, Insulin Receptor (Homo sapiens, UniProt P06213); assay type: biochemical; details: 10 μM CV-8814
[2] = target: Protein Tyrosine Kinase, LCK (Homo sapiens, UniProt P06239); assay type: biochemical; details: 10 μM CV-8814
Adenosine A1 = Adenosine A1 (Homo sapiens, UniProt P30542); assay type: binding; details: 10 μM CV-8814
Adenosine A2A = Adenosine A2A (Homo sapiens, UniProt P29274); assay type: binding; details: 10 μM CV-8814
Adrenergic α1B = Adrenergic α1B (Rattus norvegicus, UniProt P15823); assay type: binding; details: 10 μM CV-8814
Adrenergic β1 = Adrenergic β1 (Homo sapiens, UniProt P08588); assay type: binding; details: 10 μM CV-8814
Androgen (Testosterone) = Androgen (Testosterone) (Homo sapiens, UniProt P10275); assay type: binding; details: 10 μM CV-8814
Angiotensin AT1 = Angiotensin AT1 (Homo sapiens, UniProt P30556); assay type: binding; details: 10 μM CV-8814
Bradykinin B2 = Bradykinin B2 (Homo sapiens, UniProt P30411); assay type: binding; details: 10 μM CV-8814
Calcium Channel N-Type = Calcium Channel N-Type (Rattus norvegicus, UniProt Q02294); assay type: binding; details: 10 μM CV-8814
Chemokine CXCR2 (IL-8RB) = Chemokine CXCR2 (IL-8RB) (Homo sapiens, UniProt P25025); assay type: binding; details: 10 μM CV-8814
[3] = target: Cholecystokinin CCK2 (CCKB) (Homo sapiens, UniProt P32239); assay type: binding; details: 10 μM CV-8814
Dopamine D2L = Dopamine D2L (Homo sapiens, UniProt P14416); assay type: binding; details: 10 μM CV-8814
Endothelin ETA = Endothelin ETA (Homo sapiens, UniProt P25101); assay type: binding; details: 10 μM CV-8814
Glucocorticoid = Glucocorticoid (Homo sapiens, UniProt P04150); assay type: binding; details: 10 μM CV-8814
[4] = target: Glutamate, Metabotropic, mGlu5 (Homo sapiens, UniProt P41594); assay type: binding; details: 10 μM CV-8814
Glutamate, NMDA, Glycine = Glutamate, NMDA, Glycine (Rattus norvegicus, UniProt P35439); assay type: binding; details: 10 μM CV-8814
Histamine H1 = Histamine H1 (Homo sapiens, UniProt P35367); assay type: binding; details: 10 μM CV-8814
Melanocortin MC1 = Melanocortin MC1 (Homo sapiens, UniProt Q01726); assay type: binding; details: 10 μM CV-8814
Melanocortin MC4 = Melanocortin MC4 (Homo sapiens, UniProt P32245); assay type: binding; details: 10 μM CV-8814
Muscarinic M1 = Muscarinic M1 (Homo sapiens, UniProt P11229); assay type: binding; details: 10 μM CV-8814
Muscarinic M2 = Muscarinic M2 (Homo sapiens, UniProt P08172); assay type: binding; details: 10 μM CV-8814
Muscarinic M4 = Muscarinic M4 (Homo sapiens, UniProt P08173); assay type: binding; details: 10 μM CV-8814
Neuropeptide Y Y1 = Neuropeptide Y Y1 (Homo sapiens, UniProt P25929); assay type: binding; details: 10 μM CV-8814
[5] = target: Nicotinic Acetylcholine α1, Bungarotoxin (Homo sapiens, UniProt P02708+P07510+Q07001); assay: biochemical; assay type: binding
Opiate δ1 (OP1, DOP) = Opiate δ1 (OP1, DOP) (Homo sapiens, UniProt P41143); assay type: binding; details: 10 μM CV-8814
Opiate κ (OP2, KOP) = Opiate κ (OP2, KOP) (Homo sapiens, UniProt P41145); assay type: binding; details: 10 μM CV-8814
Opiate μ (OP3, MOP) = Opiate μ (OP3, MOP) (Homo sapiens, UniProt P35372); assay type: binding; details: 10 μM CV-8814
Progesterone PR-B = Progesterone PR-B (Homo sapiens, UniProt P06401); assay type: binding; details: 10 μM CV-8814
[6] = target: Serotonin (5-Hydroxytryptamine) 5-HT1B (Homo sapiens, UniProt P28222); assay type: binding; details: 10 μM CV-8814
[7] = target: Serotonin (5-Hydroxytryptamine) 5-HT2A (Homo sapiens, UniProt P28223); assay type: binding; details: 10 μM CV-8814
[8] = target: Serotonin (5-Hydroxytryptamine) 5-HT2B (Homo sapiens, UniProt P41595); assay type: binding; details: 10 μM CV-8814
[9] = target: Serotonin (5-Hydroxytryptamine) 5-HT3 (Homo sapiens, UniProt P46098); assay type: binding; details: 10 μM CV-8814
[10] = target: Transporter, Dopamine (DAT) (Homo sapiens, UniProt Q01959); assay type: binding; details: 10 μM CV-8814
[11] = target: Transporter, Serotonin (5-Hydroxytryptamine) (SERT) (Homo sapiens, UniProt P31645); assay type: binding; details: 10 μM CV-8814

Measured: inhibition at 10 µM

Sequence of Muscarinic M2 (P08172 whole entry): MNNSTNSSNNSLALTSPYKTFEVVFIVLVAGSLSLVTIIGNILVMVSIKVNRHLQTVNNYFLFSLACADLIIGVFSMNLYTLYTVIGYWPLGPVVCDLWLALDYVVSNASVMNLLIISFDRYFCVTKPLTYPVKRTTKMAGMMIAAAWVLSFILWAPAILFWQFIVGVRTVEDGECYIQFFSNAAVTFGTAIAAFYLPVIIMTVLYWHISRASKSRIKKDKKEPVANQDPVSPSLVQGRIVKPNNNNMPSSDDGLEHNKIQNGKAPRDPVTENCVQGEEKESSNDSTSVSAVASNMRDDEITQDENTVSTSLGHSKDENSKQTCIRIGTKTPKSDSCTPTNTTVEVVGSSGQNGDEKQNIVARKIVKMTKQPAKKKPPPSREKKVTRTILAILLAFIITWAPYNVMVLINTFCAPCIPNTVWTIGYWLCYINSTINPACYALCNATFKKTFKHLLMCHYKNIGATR
Sequence of Transporter, Serotonin (5-Hydroxytryptamine) (SERT) (P31645 whole entry): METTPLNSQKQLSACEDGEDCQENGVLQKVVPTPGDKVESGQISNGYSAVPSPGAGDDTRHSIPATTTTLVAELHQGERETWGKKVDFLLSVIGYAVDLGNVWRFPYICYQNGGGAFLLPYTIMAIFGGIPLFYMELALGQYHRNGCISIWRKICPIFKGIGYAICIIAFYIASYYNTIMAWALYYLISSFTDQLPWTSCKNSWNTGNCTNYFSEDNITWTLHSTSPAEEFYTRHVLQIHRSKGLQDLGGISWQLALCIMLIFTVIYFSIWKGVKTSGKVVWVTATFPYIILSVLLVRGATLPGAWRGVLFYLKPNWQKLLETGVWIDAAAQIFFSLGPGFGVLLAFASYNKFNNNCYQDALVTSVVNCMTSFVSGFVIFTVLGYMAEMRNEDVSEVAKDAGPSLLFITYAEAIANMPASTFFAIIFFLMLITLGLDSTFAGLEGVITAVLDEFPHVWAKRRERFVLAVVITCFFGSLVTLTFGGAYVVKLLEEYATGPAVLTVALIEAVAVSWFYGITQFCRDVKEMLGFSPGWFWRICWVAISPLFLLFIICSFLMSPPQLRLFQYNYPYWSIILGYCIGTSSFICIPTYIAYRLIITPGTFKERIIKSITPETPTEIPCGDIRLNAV
Sequence of Opiate μ (OP3, MOP) (P35372 whole entry): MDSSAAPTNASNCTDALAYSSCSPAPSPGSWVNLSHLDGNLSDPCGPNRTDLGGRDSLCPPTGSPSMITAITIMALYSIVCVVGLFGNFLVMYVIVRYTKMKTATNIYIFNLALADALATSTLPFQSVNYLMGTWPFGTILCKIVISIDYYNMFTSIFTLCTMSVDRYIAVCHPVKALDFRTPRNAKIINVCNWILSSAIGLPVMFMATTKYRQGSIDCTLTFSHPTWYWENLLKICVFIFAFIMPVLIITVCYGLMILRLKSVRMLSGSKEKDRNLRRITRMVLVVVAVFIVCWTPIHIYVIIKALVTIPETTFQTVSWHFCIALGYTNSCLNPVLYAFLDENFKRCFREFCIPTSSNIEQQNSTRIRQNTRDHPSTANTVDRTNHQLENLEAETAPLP
Sequence of Melanocortin MC4 (P32245 whole entry): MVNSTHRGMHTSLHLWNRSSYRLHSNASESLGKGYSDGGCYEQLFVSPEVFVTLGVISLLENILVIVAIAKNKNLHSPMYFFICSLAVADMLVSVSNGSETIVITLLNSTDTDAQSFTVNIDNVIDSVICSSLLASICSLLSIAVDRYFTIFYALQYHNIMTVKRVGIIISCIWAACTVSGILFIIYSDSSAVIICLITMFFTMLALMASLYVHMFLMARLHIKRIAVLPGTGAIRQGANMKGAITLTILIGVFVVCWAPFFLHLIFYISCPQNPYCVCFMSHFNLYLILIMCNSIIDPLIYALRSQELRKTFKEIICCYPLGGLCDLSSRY
Sequence of Angiotensin AT1 (P30556 whole entry): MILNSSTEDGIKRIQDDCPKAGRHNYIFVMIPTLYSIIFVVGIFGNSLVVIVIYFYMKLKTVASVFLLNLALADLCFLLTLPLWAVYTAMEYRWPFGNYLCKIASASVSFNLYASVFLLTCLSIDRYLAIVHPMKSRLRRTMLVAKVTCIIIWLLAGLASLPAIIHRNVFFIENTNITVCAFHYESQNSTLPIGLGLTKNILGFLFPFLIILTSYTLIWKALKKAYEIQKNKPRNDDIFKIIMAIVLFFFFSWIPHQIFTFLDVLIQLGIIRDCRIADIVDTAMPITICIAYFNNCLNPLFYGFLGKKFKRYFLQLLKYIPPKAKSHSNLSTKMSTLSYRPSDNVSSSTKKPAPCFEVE
Sequence of Transporter, Dopamine (DAT) (Q01959 whole entry): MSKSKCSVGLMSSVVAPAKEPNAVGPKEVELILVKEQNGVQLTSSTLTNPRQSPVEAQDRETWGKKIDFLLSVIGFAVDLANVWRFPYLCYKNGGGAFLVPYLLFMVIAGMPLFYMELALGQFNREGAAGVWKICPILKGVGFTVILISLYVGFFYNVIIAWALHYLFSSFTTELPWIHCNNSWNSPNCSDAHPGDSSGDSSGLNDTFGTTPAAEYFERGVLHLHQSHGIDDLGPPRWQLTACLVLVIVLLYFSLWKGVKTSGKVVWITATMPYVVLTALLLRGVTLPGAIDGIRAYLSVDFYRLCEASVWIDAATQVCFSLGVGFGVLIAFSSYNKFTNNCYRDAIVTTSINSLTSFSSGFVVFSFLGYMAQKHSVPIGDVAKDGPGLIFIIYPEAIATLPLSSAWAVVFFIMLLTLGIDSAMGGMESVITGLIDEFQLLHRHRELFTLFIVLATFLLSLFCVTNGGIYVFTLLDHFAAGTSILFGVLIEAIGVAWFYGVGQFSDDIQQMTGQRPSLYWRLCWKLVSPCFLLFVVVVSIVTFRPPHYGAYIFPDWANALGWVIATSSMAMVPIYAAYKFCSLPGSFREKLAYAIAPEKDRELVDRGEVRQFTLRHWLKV
Sequence of Muscarinic M4 (P08173 whole entry): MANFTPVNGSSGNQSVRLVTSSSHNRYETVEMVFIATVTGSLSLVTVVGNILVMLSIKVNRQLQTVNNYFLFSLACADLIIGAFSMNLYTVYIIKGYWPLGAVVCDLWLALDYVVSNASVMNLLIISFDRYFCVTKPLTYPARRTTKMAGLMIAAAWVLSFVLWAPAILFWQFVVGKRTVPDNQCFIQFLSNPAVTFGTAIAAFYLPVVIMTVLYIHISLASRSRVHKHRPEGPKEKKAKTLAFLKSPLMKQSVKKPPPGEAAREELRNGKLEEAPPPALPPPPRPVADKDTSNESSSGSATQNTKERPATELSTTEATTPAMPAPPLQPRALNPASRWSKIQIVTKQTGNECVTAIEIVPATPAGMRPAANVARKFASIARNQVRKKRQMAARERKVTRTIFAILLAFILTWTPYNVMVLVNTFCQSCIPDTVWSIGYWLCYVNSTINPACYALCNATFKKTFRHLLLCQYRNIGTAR
Sequence of Adrenergic α1B (P15823 whole entry): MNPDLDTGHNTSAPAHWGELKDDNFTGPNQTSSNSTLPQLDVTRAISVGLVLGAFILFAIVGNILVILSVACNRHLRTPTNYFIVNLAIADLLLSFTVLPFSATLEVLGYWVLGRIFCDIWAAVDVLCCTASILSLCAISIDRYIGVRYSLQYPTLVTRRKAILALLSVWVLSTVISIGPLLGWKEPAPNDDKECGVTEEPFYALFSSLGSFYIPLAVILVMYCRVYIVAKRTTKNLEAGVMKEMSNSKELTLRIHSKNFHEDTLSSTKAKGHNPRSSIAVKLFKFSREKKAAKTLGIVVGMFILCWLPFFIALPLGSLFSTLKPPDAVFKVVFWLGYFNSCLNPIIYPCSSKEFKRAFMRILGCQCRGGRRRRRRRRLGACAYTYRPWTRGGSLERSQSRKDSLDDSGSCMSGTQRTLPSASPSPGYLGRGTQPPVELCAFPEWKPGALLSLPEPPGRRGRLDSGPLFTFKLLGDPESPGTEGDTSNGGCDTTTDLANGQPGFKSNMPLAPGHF
Sequence of Progesterone PR-B (P06401 whole entry): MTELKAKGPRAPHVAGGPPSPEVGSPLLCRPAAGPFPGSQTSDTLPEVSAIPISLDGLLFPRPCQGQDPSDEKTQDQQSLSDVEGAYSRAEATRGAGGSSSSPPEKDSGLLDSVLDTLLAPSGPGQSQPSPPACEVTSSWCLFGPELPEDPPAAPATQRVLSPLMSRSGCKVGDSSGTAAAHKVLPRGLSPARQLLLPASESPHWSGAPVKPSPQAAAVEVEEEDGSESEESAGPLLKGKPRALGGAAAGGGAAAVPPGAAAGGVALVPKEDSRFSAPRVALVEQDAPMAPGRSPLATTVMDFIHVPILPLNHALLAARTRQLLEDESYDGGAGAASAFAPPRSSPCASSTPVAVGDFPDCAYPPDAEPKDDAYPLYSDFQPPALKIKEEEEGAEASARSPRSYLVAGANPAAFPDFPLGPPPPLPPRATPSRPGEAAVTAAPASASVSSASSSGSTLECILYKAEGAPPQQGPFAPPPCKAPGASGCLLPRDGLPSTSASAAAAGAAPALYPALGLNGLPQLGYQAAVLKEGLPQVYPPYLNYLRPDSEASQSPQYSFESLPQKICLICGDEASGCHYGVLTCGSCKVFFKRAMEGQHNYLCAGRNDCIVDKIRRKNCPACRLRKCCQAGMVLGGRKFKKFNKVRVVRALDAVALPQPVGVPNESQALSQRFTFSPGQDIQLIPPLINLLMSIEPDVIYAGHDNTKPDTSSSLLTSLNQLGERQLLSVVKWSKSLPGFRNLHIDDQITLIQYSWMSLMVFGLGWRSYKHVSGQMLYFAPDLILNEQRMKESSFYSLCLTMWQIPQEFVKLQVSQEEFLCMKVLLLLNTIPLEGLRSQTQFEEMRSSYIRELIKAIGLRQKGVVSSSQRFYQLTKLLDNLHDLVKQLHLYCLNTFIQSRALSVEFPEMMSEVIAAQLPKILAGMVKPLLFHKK

COc1ccc(CN2CCN(CCO)CC2)c(OC)c1OC [CV-8814, 2-(4-(2,3,4-trimethoxybenzyl)piperazin-1-yl)ethan-1-01]
< 50%: all assays above
